Measured values published in patent publication US8501754B2, “Quinazolinamide derivatives” (MERCK PATENT GmbH, priority 2007, dated 2013).

What follows are compounds tested against Recombinant human HSP90a (Homo sapiens, UniProt P07900) (assay: radioligand filter binding test ([3H]17AAG competition) for HSP90 inhibition). Details: competition with [3H]17AAG 0.08 μM, HSP90 1.5 μg/assay, 22° C., 30 min.
Description: Test Method for the Measurement of HSP90 Inhibitors
The binding of geldanamycin or 17-allylamino-17-demethoxygeldanamycin (17AAG) to HSP90 and competitive inhibition thereof can be utilized in order to determine the inhibitory activity of the compounds according to the invention (Carreras et al. 2003, Chiosis et al. 2002).
In the specific case, a radioligand filter binding test is used. The radioligand used here is tritium-labelled 17-allylaminogeldanamycin, [3H]17AAG. This filter binding test allows a targeted search for inhibitors which interfere with the ATP binding site.
Recombinant human HSP90a (E. coli expressed, 95% purity);
[3H]17AAG (17-allylaminogeldanamycin, [allylamino-2,3-^3H. Specific activity: 1.11×10^12 Bq/mmol (Moravek, MT-1717);
HEPES filter buffer (50 mM HEPES, pH 7.0, 5 mM MgCl2, BSA 0.01%) Multiscreen FB (1 μm) filter plate (Millipore, MAFBNOB 50).
The 96-well microtitre filter plates are firstly irrigated and coated with 0.1% of polyethylenimine.
The test is carried out under the following conditions:
Reaction temperature 22° C.
Reaction time: 30 min., shaking at 800 rpm
50 mM HEPES HCl, pH 7.0, 5 mM MgCl2, 0.01% (w/v) of BSA
At the end of the reaction, the supernatant in the filter plate is removed by suction with the aid of a vacuum manifold (Multiscreen Separation System, Millipore), and the filter is washed twice.
The filter plates are then measured in a beta counter (Microbeta, Wallac) with scintillator (Microscint 20, Packard).
“% of control” is determined from the “counts per minutes” values, and the IC-50 value of a compound is calculated therefrom.

| SMILES | IC50 [nM] |
| --- | --- |
| CCN(CC)C(=O)c1nc(N)nc2ccc(C)cc12 [Compound A77, 2-Amino-6-methyl-4-diethylcarbamoylquinazoline] | 1000 to 10000 |
| CC(C)c1ccc2nc(N)nc(C(=O)N3Cc4ccccc4C3)c2c1 [Compound A118, 2-Amino-6-isopropyl-4-(1,3-dihydroisoindol-2-ylcarbonyl)quinazoline] | 1000 to 10000 |
| CC(C)c1ccc2nc(N)nc(C(=O)N3Cc4ccc(Br)cc4C3)c2c1 [Compound A117, 2-Amino-6-isopropyl-4-(5-bromo-1,3-dihydroisoindol-2-ylcarbonyl)quinazoline] | 1000 to 10000 |
| CCN(CC)C(=O)c1nc(N)nc2ccc(-c3ccccc3)cc12 [Compound A138, 2-Amino-6-phenyl-4-diethylcarbamoylquinazoline] | 1000 to 10000 |

Results, then the compound that gave them:

| IC50 [nM] | SMILES |
| --- | --- |
| 10 to 1000 | CN1CCN(S(=O)(=O)c2ccccc2-c2ccc3nc(N)nc(C(=O)N4Cc5ccccc5C4)c3c2)CC1 [Compound A980, {2-amino-6-[2-(4-methylpiperazine-1-sulfonyl)phenyl]quinazolin-4-yl}-(1,3-dihydroisoindol-2-yl)methanone] |
| 10 to 1000 | Nc1nc(C(=O)N2Cc3ccccc3C2)c2cc(C#CCCO)ccc2n1 [Compound A997] |
| 10 to 1000 | N#CCc1cccc(-c2ccc3nc(N)nc(C(=O)N4Cc5ccccc5C4)c3c2)c1 [Compound A919, 2-Amino-6-(3-cyanomethylphenyl)-4-(1,3-dihydroisoindol-2-ylcarbonyl)quinazoline] |
| 10 to 1000 | CN1CCN(Cc2ccccc2-c2ccc3nc(N)nc(C(=O)N4Cc5ccccc5C4)c3c2)CC1 [Compound A970, {2-amino-6-[2-(4-methylpiperazin-1-ylmethyl)phenyl]quinazolin-4-yl}-(1,3-dihydroisoindol-2-yl)methanone] |
